The target of assay [1] is T1, Cys^10Ser mutant 17β-HSD1 (Homo sapiens, UniProt P14061, C11S).
T1 construct: expressed in transfected cells; host or cells: HEK-293 (transient calcium phosphate transfection; cell lysates used)
T1 sequence (P14061 1-328 C11S): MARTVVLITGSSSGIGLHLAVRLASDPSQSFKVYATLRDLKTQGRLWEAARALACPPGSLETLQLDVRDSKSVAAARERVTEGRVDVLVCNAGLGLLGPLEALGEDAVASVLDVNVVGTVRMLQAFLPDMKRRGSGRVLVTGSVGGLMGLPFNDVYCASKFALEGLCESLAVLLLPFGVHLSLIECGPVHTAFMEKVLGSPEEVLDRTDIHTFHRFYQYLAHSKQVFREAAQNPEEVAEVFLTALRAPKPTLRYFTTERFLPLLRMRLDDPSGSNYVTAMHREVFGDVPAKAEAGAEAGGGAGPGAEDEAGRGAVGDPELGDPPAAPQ
Description: Cys^10Ser mutant 17β-HSD1 reductase activity (estrone to estradiol) in lysates of transfected HEK-293 cells. It counts as biochemical. On the procedure:
In order to facilitate detection, an octahistidine tag was added to the C-terminus of human 17β-HSD1 by PCR amplification using oligonucleotide primers containing the tag-coding sequence (forward primer 5′-[…]-3′, reverse primer 5′-[…]-3′). […] The substitution of Cys^10 to serine was introduced into the C-terminal histidine-tagged 17β-HSD1 cDNA in Bluescript vector by site-directed mutagenesis using the forward primer 5′-[…]-3′ and the reverse primer 5′-[…]-3′ according to the Quick Change mutagenesis kit (Stratagene, Amsterdam, The Netherlands), followed by subsequent recloning into pcDNA3.1 expression plasmid.
(§1) To determine 17β-HSD1 activity, HEK-293 cells were transfected by the calcium phosphate precipitation method. Cells were harvested 48 h after transfection, washed twice with phosphate-buffered saline (PBS), and centrifuged for 4 min at 150 ×g. Supernatants were removed and the cell pellets were quick-frozen in a dry ice-ethanol bath and stored at −80°C. The reductase activity of 17β-HSD1 was measured by incubation of cell lysates for 10 min at 37°C in the presence of 200 nM radiolabeled estrone and 400 μM NADPH in a reaction buffer containing 20% glycerol, 1 mM EDTA, and 50 mM potassium phosphate, pH 7.4. Inhibitors were diluted from stock solutions in dimethylsulfoxide (DMSO) and immediately used in the assays.
(§2) For determination of enzyme kinetics, estrone concentrations ranging from 10 to 800 nM were used. Data (mean ± SD) were obtained from three independent experiments and were calculated using the Data Analysis Toolbox (Elsevier MDL, Allschwil, Switzerland).

For another assay, the target named is T2, human 17β-HSD1 (Homo sapiens, UniProt P14061).
T2 construct: expressed in transfected cells; host or cells: HEK-293 (transient calcium phosphate transfection; cell lysates used)
T2 sequence (P14061 1-328): T1 sequence (P14061 1-328 C11S) with S11C
Put plainly: 17β-HSD1 reductase activity (estrone to estradiol) in lysates of transfected HEK-293 cells. It counts as biochemical. Particulars: for IC50 for 17β-HSD1 compared with those obtained for 11β-HSD2: simultaneous incubation with substrate and inhibitor, 11β-HSD2 values from ref 20. On the procedure: as §1, §2

Setting [2] is: simultaneous incubation of lysates with 200 nM estrone and inhibitor, 400 μM NADPH, 10 min, 37°C, read-out: IC50.

Changes are numbered by the printed parent chain. Where two headings read alike, the source gives them in different places.

Regarding `CCN1C(=O)C=CC1=O` [NEM, N-ethylmaleimide], the “inhibition of wild-type enzyme relative to mutant Cys^10Ser” value in assay [1] (cell lysates, data not shown) is listed as “approximately two times stronger”. Moreover, the “17β-HSD1 activity after preincubation with inhibitor” value at human 17β-HSD1 (preincubation of lysates with 20 μM NEM for 1 h prior to the addition of estrone, data not shown) is listed as “completely abolished”. The “effect of preincubation with NADPH on inhibition” value on human 17β-HSD1 (preincubation with NADPH for 15 min, NEM 60 μM, estrone 200 nM, NADPH 400 μM, concentration dependent) is listed as “protected from inhibition”. The IC50 (in general, the concentration needed to halve the response being measured) on human 17β-HSD1 (setting [2]) was determined as 22 ± 6 µM.
In the case of `CCN(CC)C(=S)SSC(=S)N(CC)CC` [disulfiram], at human 17β-HSD1 (setting [2]), the IC50 stood at 8 ± 1 µM. Further, the “IC50 for 17β-HSD1 compared with those obtained for 11β-HSD2” value on human 17β-HSD1 was “about two orders of magnitude higher”.
Regarding `C[C@]12CC[C@@H]3c4ccc(O)cc4CC[C@H]3[C@@H]1CCC2=O` [estrone], the K m in assay [1] (Cys^10Ser mutant, estrone 10 to 800 nM, 400 μM NADPH) stood at 0.065 ± 0.003 µM; on human 17β-HSD1 (wild-type, estrone 10 to 800 nM, 400 μM NADPH), 0.043 ± 0.006 µM. Moreover, the V max in assay [1] (Cys^10Ser mutant, estrone 10 to 800 nM, 400 μM NADPH, normalized to protein expression) was 124 ± 3 nmol/h/mg; at human 17β-HSD1 (wild-type, estrone 10 to 800 nM, 400 μM NADPH, normalized to protein expression), 110 ± 5 nmol/h/mg.
As to `CN(C)C(=S)SSC(=S)N(C)C` [thiram], the IC50 at human 17β-HSD1 (setting [2]) turned out to be 21 ± 4 µM. In addition, at human 17β-HSD1, the “IC50 for 17β-HSD1 compared with those obtained for 11β-HSD2” value is given as “about two orders of magnitude higher”.
Take `S=C(S)NCCNC(=S)S` [zineb]: on human 17β-HSD1, 24 ± 3 µM corresponded to half-maximal inhibition (IC50) and the “IC50 for 17β-HSD1 compared with those obtained for 11β-HSD2” value is given as “about two orders of magnitude higher”.
For maneb, the IC50 at human 17β-HSD1 (setting [2]) was 25 ± 3 µM. Moreover, at human 17β-HSD1, the “IC50 for 17β-HSD1 compared with those obtained for 11β-HSD2” value is “about two orders of magnitude higher”.

Values taken from PMC3855964, “Cysteine-10 on 17β-Hydroxysteroid Dehydrogenase 1 Has Stabilizing Interactions in the Cofactor Binding Region and Renders Sensitivity to Sulfhydryl Modifying Chemicals” (International Journal of Cell Biology, 2013).
